Some test systems named below: SNB-19; CCRF-CEM; HCC 2998; HL-60; HOP-62; OVCAR-3; MOLT-4; SNB-75; RXF 393; OVCAR-4; UACC-62; HCT-15; SK-OV-3; OVCAR-5; ACHN; UACC-257; BT-549; MDA-MB-231; NCI/ADR-RES.
Assay in all cases: NCI anticancer screen, dose series, 48 h

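48-hour exposure; five concentrations; linearly interpolated endpoints. GI50 = concentration required for 50% inhibition of growth.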 Active and inactive are the calls of the source. No stated cut-off is given here; in the data, active = GI50 up to about 1.1 µM and inactive = higher.

In the case of `Cn1c2ccccc2c(=O)c2ccc(Cl)cc21`, the GI50 in the assay with SNB-19 was 0.0676 µM (active); with CCRF-CEM, > 10 µM (inactive); in the assay with HCC 2998, > 10 µM (inactive); with HL-60, 9.95 µM (inactive); in the assay on HOP-62, > 10 µM (inactive); in the assay on OVCAR-3 it was > 10 µM (inactive). In addition, the GI50 in the assay on MOLT-4 is > 10 µM (inactive); in the assay on SNB-75, 8.97 µM (inactive); with RXF 393, > 10 µM (inactive); in the assay on OVCAR-4 it was > 10 µM (inactive); with UACC-62 it was > 10 µM (inactive); in the assay on HCT-15 it was greater than 10 µM. Besides, the GI50 with SK-OV-3 is 6.71 µM (inactive).

With `COc1ccc(/C=C/COC(C)=O)cc1OC`, the GI50 in the assay with SNB-19, in the assay on HCC 2998, in the assay on OVCAR-3, with MOLT-4, with SNB-75 and in the assay with OVCAR-5 was > 100 µM (inactive) throughout. Besides, the GI50 was > 100 µM (inactive) in the assay with ACHN; > 100 µM (inactive) in the assay on RXF 393; > 100 µM (inactive) with OVCAR-4; > 100 µM (inactive) in the assay with UACC-62; greater than 100 µM with HCT-15; > 100 µM (inactive) in the assay with SK-OV-3. Moreover, the GI50 in the assay on UACC-257 is > 100 µM (inactive).

Take `O=C(CNc1ccccc1Cl)Nn1c(-c2ccccc2)nc2ccccc2c1=O`: the GI50 with SNB-19 is > 10 µM (inactive); in the assay on CCRF-CEM, 13.4 µM (inactive); in the assay on HCC 2998, 19.5 µM (inactive); in the assay on HL-60 it was 22.4 µM (inactive); in the assay with HOP-62, 27.9 µM (inactive); with OVCAR-3 it was 23.1 µM (inactive). In addition, the GI50 with BT-549 is 12.8 µM (inactive); with MDA-MB-231, > 10 µM (inactive); with MOLT-4, 13.2 µM (inactive); with SNB-75, 16.8 µM (inactive); in the assay with OVCAR-5, > 10 µM (inactive); in the assay on ACHN, 37.4 µM (inactive). Further, the GI50 in the assay on RXF 393 was 20.3 µM (inactive); with OVCAR-4, 26.4 µM (inactive); in the assay on UACC-62 it was > 10 µM (inactive); with SK-OV-3, 38.1 µM (inactive); with UACC-257, 50.6 µM (inactive).

As to `O=S(=O)(NC1CCCCC1)c1ccc2c(c1)OCCOCCOCCOCCO2`, the GI50 in the assay with SNB-19, in the assay on CCRF-CEM, with HCC 2998, in the assay on HL-60, in the assay with HOP-62 and in the assay on BT-549 was > 100 µM (inactive) in each case. Also, the GI50 is > 100 µM (inactive) with MDA-MB-231; > 100 µM (inactive) in the assay with MOLT-4; > 100 µM (inactive) in the assay with SNB-75; > 100 µM (inactive) with ACHN; > 100 µM (inactive) in the assay with UACC-62; greater than 100 µM in the assay with HCT-15. The GI50 with SK-OV-3 and in the assay on UACC-257 was > 100 µM (inactive) throughout.

Turning to `O=C1CCC2(CC1)Cc1ccccc1C2O` (configuration not stated), the GI50 in the assay on SNB-19, in the assay on CCRF-CEM, in the assay on HCC 2998, in the assay with HL-60, in the assay on HOP-62 and in the assay with BT-549 was > 100 µM (inactive) each time. Also, the GI50 in the assay with MDA-MB-231 was > 100 µM (inactive); in the assay on MOLT-4, > 100 µM (inactive); in the assay with SNB-75, < 0.01 µM (active); in the assay on OVCAR-5, > 100 µM (inactive); in the assay on ACHN, > 100 µM (inactive); in the assay on NCI/ADR-RES, > 100 µM (inactive). The GI50 is > 100 µM (inactive) in the assay on OVCAR-4; > 100 µM (inactive) with UACC-62; greater than 100 µM in the assay with HCT-15; > 100 µM (inactive) with SK-OV-3; > 100 µM (inactive) in the assay on UACC-257.

Turning to `CCP(=O)(OC)C1=CCN(C(=O)OCC[Si](C)(C)C)CC1` (configuration not stated), the GI50 with SNB-19, in the assay with CCRF-CEM, in the assay with HCC 2998, with HL-60, in the assay with HOP-62 and in the assay with OVCAR-3 was > 100 µM (inactive) throughout. The GI50 in the assay on MDA-MB-231, in the assay with MOLT-4, with SNB-75, in the assay with OVCAR-5, in the assay on ACHN and in the assay on RXF 393 was > 100 µM (inactive) throughout. The GI50 is > 100 µM (inactive) with NCI/ADR-RES; > 100 µM (inactive) with OVCAR-4; > 100 µM (inactive) in the assay on UACC-62; greater than 100 µM with HCT-15; > 100 µM (inactive) in the assay on SK-OV-3; > 100 µM (inactive) in the assay with UACC-257.

In the case of `CCOc1cc(NC(C)=O)ccc1C(=O)NNS(=O)(=O)c1ccc(NC(C)=O)cc1`, the GI50 in the assay on SNB-19 was 77.4 µM (inactive); with CCRF-CEM it was 38.9 µM (inactive); in the assay with HCC 2998, > 100 µM (inactive); with HL-60, 22.8 µM (inactive); in the assay with HOP-62 it was 63.5 µM (inactive); in the assay on OVCAR-3 it was 34.6 µM (inactive). Also, the GI50 in the assay with BT-549 was > 100 µM (inactive); in the assay on MOLT-4, 37.2 µM (inactive); in the assay with SNB-75 it was 72.9 µM (inactive); in the assay with OVCAR-5, > 100 µM (inactive); in the assay on ACHN, > 100 µM (inactive); in the assay with RXF 393 it was 76.7 µM (inactive). The GI50 was 69.8 µM (inactive) in the assay with NCI/ADR-RES; 73.6 µM (inactive) with OVCAR-4; 57.3 µM (inactive) with UACC-62; 53.6 µM with HCT-15; 50.9 µM (inactive) in the assay with SK-OV-3; > 100 µM (inactive) in the assay with UACC-257.

For the molecule `O=C1CCC2(c3ccc(Cl)cc3)Nc3ccncc3N12` (configuration not stated), the GI50 in the assay with SNB-19 is > 10 µM (inactive); in the assay on CCRF-CEM it was > 10 µM (inactive); with HL-60 it was > 10 µM (inactive); in the assay with OVCAR-3, > 10 µM (inactive); in the assay with BT-549 it was > 10 µM (inactive); in the assay with MDA-MB-231, 0.00507 µM (active). The GI50 in the assay on MOLT-4, in the assay on SNB-75, with OVCAR-5, with ACHN, with NCI/ADR-RES and in the assay with OVCAR-4 was > 10 µM (inactive) in each case. Further, the GI50 was > 10 µM (inactive) with UACC-62, greater than 10 µM in the assay with HCT-15, 5.52 µM (inactive) in the assay with SK-OV-3 and > 10 µM (inactive) in the assay on UACC-257.

Regarding `CC(=O)OCC(C)(COC(C)=O)N1C(=O)C2C3c4ccccc4C(c4ccccc43)C2C1=O` (configuration not stated), the GI50 in the assay with SNB-19, with CCRF-CEM, with HL-60, with OVCAR-3, with BT-549 and in the assay on MDA-MB-231 was > 100 µM (inactive) in each case. Further, the GI50 with MOLT-4 is > 100 µM (inactive); in the assay with SNB-75 it was 49.7 µM (inactive); with OVCAR-5 it was > 100 µM (inactive); with ACHN, > 100 µM (inactive); with RXF 393, 35.6 µM (inactive); in the assay on UACC-62, > 100 µM (inactive). Moreover, the figures for the GI50 in the assay with HCT-15, in the assay on SK-OV-3 and with UACC-257 were greater than 100 µM, > 100 µM (inactive) and > 100 µM (inactive), respectively.

`O=c1[nH]n(Cc2ccccc2)c2ccc([N+](=O)[O-])cc12`: the GI50 in the assay with SNB-19 is > 100 µM (inactive); in the assay with CCRF-CEM it was 55.2 µM (inactive); in the assay on HCC 2998 it was 36.3 µM (inactive); in the assay on HL-60, 33.8 µM (inactive); with HOP-62, > 100 µM (inactive); in the assay on OVCAR-3, > 100 µM (inactive). For the same molecule, the GI50 was 28.7 µM (inactive) in the assay on MDA-MB-231; 34.7 µM (inactive) with MOLT-4; > 100 µM (inactive) with OVCAR-5; > 100 µM (inactive) with ACHN; 71.9 µM (inactive) with RXF 393; 34.8 µM (inactive) in the assay on NCI/ADR-RES. Besides, the GI50 in the assay with OVCAR-4 was > 100 µM (inactive); in the assay on UACC-62, > 100 µM (inactive); in the assay on HCT-15, 56.1 µM; with SK-OV-3, 15.7 µM (inactive); with UACC-257, 60.8 µM (inactive).

For `CN(C)CCNC(=O)c1cccc2c(NC(CCCNC(=N)N)C(=O)O)c3ccccc3[n+](C)c12` (configuration not stated), the GI50 is > 100 µM (inactive) in the assay with SNB-19; 69.5 µM (inactive) with HCC 2998; 68.1 µM (inactive) with HOP-62; > 100 µM (inactive) with OVCAR-3; > 100 µM (inactive) in the assay with BT-549; 37.1 µM (inactive) with MDA-MB-231. The GI50 in the assay with MOLT-4 was 47.8 µM (inactive); in the assay on SNB-75, 28.1 µM (inactive); with OVCAR-5, > 100 µM (inactive); in the assay with ACHN, 68.7 µM (inactive); in the assay on NCI/ADR-RES it was 27.7 µM (inactive); in the assay on OVCAR-4 it was > 100 µM (inactive). Further, the GI50 with UACC-62 is > 100 µM (inactive); in the assay on HCT-15, greater than 100 µM; in the assay on SK-OV-3, > 100 µM (inactive); in the assay with UACC-257, > 100 µM (inactive).

Consider `Cc1c(-c2ccccc2)[nH]c2cn[nH]c(=O)c12`, for which the GI50 with SNB-19 is > 100 µM (inactive); in the assay with CCRF-CEM it was 57.1 µM (inactive); in the assay on HCC 2998, > 100 µM (inactive); with HL-60, 10.7 µM (inactive); in the assay on HOP-62 it was 50.9 µM (inactive); in the assay with OVCAR-3, 39.6 µM (inactive). Further, the GI50 with BT-549 was 75 µM (inactive); with MDA-MB-231, > 100 µM (inactive); with MOLT-4 it was 83.2 µM (inactive); with OVCAR-5 it was > 100 µM (inactive); with ACHN it was > 100 µM (inactive); in the assay with NCI/ADR-RES, 73.8 µM (inactive). Also, the GI50 is 59.2 µM (inactive) in the assay with UACC-62, 55.3 µM in the assay with HCT-15, 42.5 µM (inactive) in the assay on SK-OV-3 and > 100 µM (inactive) in the assay with UACC-257.

`CCC1(O)CC(OC2CC(N(C)C)C(OC3CC(O)C(OC4OC(C)C(=O)C=C4N)C(C)O3)C(C)O2)c2c(cc3c(c2O)C(=O)c2c(O)cccc2C3=O)C1C(=O)OC` (configuration not stated): the GI50 with SNB-19 is 0.0282 µM (active); in the assay with CCRF-CEM, 0.00169 µM (active); in the assay on HCC 2998, 0.0153 µM (active); in the assay on HL-60 it was 0.0177 µM (active); with HOP-62 it was 0.0184 µM (active); with OVCAR-3, 0.129 µM (active). Besides, the GI50 in the assay on MDA-MB-231 is 0.29 µM (active); with MOLT-4 it was 0.0015 µM (active); in the assay on SNB-75 it was 0.0402 µM (active); in the assay on OVCAR-5, 0.0678 µM (active); in the assay on ACHN, 0.0206 µM (active); in the assay with NCI/ADR-RES, 1.25 µM (inactive). Further, the GI50 in the assay on OVCAR-4 was 0.01 µM (active); in the assay on UACC-62, 0.0121 µM (active); with HCT-15, 0.241 µM; in the assay with SK-OV-3, 0.0518 µM (active); in the assay with UACC-257, 0.0211 µM (active).

The values above are taken from ChEMBL document CHEMBL1201862, “PubChem BioAssay data set” (2004).
